Measured values taken from patent US9925227B2, “Composition for treating obesity and method of using the same” (POLIFENOLES NATURALES S.L., priority 2006, dated 2018).

Assay: Energy expenditure by indirect calorimetry, dose-response clinical trial
Format: in vivo, human
Conditions: for Energy Expenditure: obese non-diabetic females with NAFLD; for Total Energy Expenditure, From (start value): baseline; for Total Energy Expenditure, to (end value): end of trial
Excerpt: Obese subjects diagnosed with NAFLD and with apparently healthy liver (HL) were matched in pairs based on age, body weight and body fat mass and were randomly divided into Experimental NAFLD group (n=36), Placebo NAFLD (n=36), Experimental HL (n=19) and Placebo-HL group (n=19). Subjects were randomly assigned, in equal numbers, to the phytomedicine experimental groups and the Placebo control group, using the Simple Randomization Procedure. Their daily dietary intake was restricted to 1800±100 kcals, of which 50±5% was in the form of carbohydrates, 30±5% from protein, and 20±5% from fat. Subjects were also instructed to consume all the foods and beverages designated by dieticians and provided by the Institute, and to eat no other food or high calories beverages. Patients were directed to take Experimental Sample and/or Placebo three times a day before meals. During the clinical phase, subjects were required to visit a designated hospital three times a week for physiological and biochemical analysis. Institute provided all foods and beverages by designated dieticians and labeled as B, L, and D for breakfast, lunch and dinner, respectively.
Measurements of Fat Oxidation by Indirect Calorimetry
Energy expenditure (EE) and substrate oxidations were measured by indirect calorimetry as described previously (Ranneries et al., 1998). Oxygen was measured with an electrochemical oxygen sensor, and carbon dioxide was measured by an infrared carbon dioxide sensor (Ametec Carbon Dioxide Analyzer). Calculations of EE and substrate oxidation rates were performed as previously described (Astrup et al., 1991). Protein oxidation was assumed to be constant and amounting to 15% of EE. The error of calculating EE by omitting the exact correction from urinary nitrogen was negligible and impossible to estimate during such a short period of time. The reliability was assessed by the coefficient of variation on resting energy expenditure repeated every week.
This effect was clearly dose-dependent phenomenon. […] Based on our dose-response trial, the optimum dose of Experimental Sample was established as 600 mg per day, which was used in further clinical trials.

With Fucoxanthin the “increase in daily energy expenditure rate” value (25 mg fucoxanthin alone) was 1152 ± 290 kJ/day, the “Energy Expenditure” value (Fucoxanthin 10 mg per day, 2 weeks) was 5.69 ± 0.21 kJ/min and the “Energy Expenditure” value (Fucoxanthin 10 mg per day, 5 weeks) was 5.93 ± 0.15 kJ/min. For the same substance, the “Energy Expenditure” value (Fucoxanthin 10 mg per day, 10 weeks) was 5.69 ± 0.21 kJ/min, the “Energy Expenditure” value (Fucoxanthin 10 mg per day, 16 weeks) was 5.98 ± 0.18 kJ/min and the “Energy Expenditure” value (Fucoxanthin 10 mg per day, Baseline) was 5.82 ± 0.18 kJ/min. The “Total Energy Expenditure, From (start value)” value (Fucoxanthin 10 mg per day) was 8381 kJ/24 h, the “Total Energy Expenditure, to (end value)” value (Fucoxanthin 10 mg per day) was 8611 kJ/24 h and the “Change in Total Energy Expenditure, Net” value (Fucoxanthin 10 mg per day, p < NS vs placebo) was “Net 230 ± 147 kJ/24 h”. The “Energy Expenditure” value (Fucoxanthin 15 mg per day, 2 weeks) was 5.89 ± 0.14 kJ/min, the “Energy Expenditure” value (Fucoxanthin 15 mg per day, 5 weeks) was 5.98 ± 0.17 kJ/min and the “Energy Expenditure” value (Fucoxanthin 15 mg per day, 10 weeks) was 6.11 ± 0.21 kJ/min. The “Energy Expenditure” value (Fucoxanthin 15 mg per day, 16 weeks) was 6.39 ± 0.17 kJ/min, the “Energy Expenditure” value (Fucoxanthin 15 mg per day, Baseline) was 5.85 ± 0.27 kJ/min and the “Total Energy Expenditure, From (start value)” value (Fucoxanthin 15 mg per day) was 8424 kJ/24 h. For the same substance, the “Total Energy Expenditure, to (end value)” value (Fucoxanthin 15 mg per day) was 9202 kJ/24 h, the “Change in Total Energy Expenditure, Net” value (Fucoxanthin 15 mg per day, p < 0.05 vs placebo) was “Net 778 ± 260 kJ/24 h” and the “Energy Expenditure” value (Fucoxanthin 25 mg per day, 2 weeks) was 6.02 ± 0.23 kJ/min. The “Energy Expenditure” value (Fucoxanthin 25 mg per day, 5 weeks) was 5.92 ± 0.27 kJ/min, the “Energy Expenditure” value (Fucoxanthin 25 mg per day, 10 weeks) was 6.29 ± 0.31 kJ/min and the “Energy Expenditure” value (Fucoxanthin 25 mg per day, 16 weeks) was 6.72 ± 0.22 kJ/min. For the same substance, the “Energy Expenditure” value (Fucoxanthin 25 mg per day, Baseline) was 5.92 ± 0.16 kJ/min, the “Total Energy Expenditure, From (start value)” value (Fucoxanthin 25 mg per day) was 8525 kJ/24 h and the “Total Energy Expenditure, to (end value)” value (Fucoxanthin 25 mg per day) was 9677 kJ/24 h. The “Change in Total Energy Expenditure, Net” value (Fucoxanthin 25 mg per day, p < 0.05 vs placebo) was “Net 1152 ± 290 kJ/24 h”, the “Energy Expenditure” value (Fucoxanthin 50 mg per day, 2 weeks) was 5.91 ± 0.31 kJ/min and the “Energy Expenditure” value (Fucoxanthin 50 mg per day, 5 weeks) was 6.32 ± 0.22 kJ/min. For the same substance, the “Energy Expenditure” value (Fucoxanthin 50 mg per day, 10 weeks) was 6.92 ± 0.31 kJ/min, the “Energy Expenditure” value (Fucoxanthin 50 mg per day, 16 weeks) was 7.37 ± 0.35 kJ/min and the “Energy Expenditure” value (Fucoxanthin 50 mg per day, Baseline) was 6.04 ± 0.24 kJ/min. For the same substance, the “Total Energy Expenditure, to (end value)” value (Fucoxanthin 50 mg per day) was 10613, kJ/24 h and the “Change in Total Energy Expenditure, Net” value (Fucoxanthin 50 mg per day, p < 0.001 vs placebo) was “Net 1915 ± 246 kJ/24 h”.
